Values after ≈ are worked out from the molar mass of the structure shown.
Key:
Staphylococcus aureus [1] = assay: Antibacterial activity against methicillin-resistant Staphylococcus aureus ATCC 43300 assessed as inhibition of bacterial growth incubated for 18 hrs by two-fold serial dilution method; assay type: functional
Enterococcus faecium = assay: Antibacterial activity against Enterococcus faecium ATCC19434 assessed as inhibition of bacterial growth incubated for 18 hrs by two-fold serial dilution method; assay type: functional
Staphylococcus aureus [2] = assay: Antibacterial activity against methicillin-sensitive Staphylococcus aureus ATCC 29213 assessed as inhibition of bacterial growth incubated for 18 hrs by two-fold serial dilution method; assay type: functional
[3] = tested on: Staphylococcus epidermidis; assay: Antibacterial activity against Staphylococcus epidermidis ATCC12228 assessed as inhibition of bacterial growth incubated for 18 hrs by two-fold serial dilution method; assay type: functional
MCF7 = assay: Cytotoxicity against human MCF7 cells assessed as cell growth inhibition measured after 72 hrs by MTT assay; assay type: functional, cell-based; settings: MCF7, 72 h
HepG2 = assay: Cytotoxicity against human HepG2 cells assessed as cell growth inhibition measured after 72 hrs by MTT assay; assay type: functional, cell-based; settings: HepG2, 72 h
HT-29 = assay: Cytotoxicity against human HT-29 cells assessed as cell growth inhibition measured after 72 hrs by MTT assay; assay type: functional, cell-based; settings: HT-29, 72 h
U-87 MG = assay: Cytotoxicity against human U87 cells assessed as cell growth inhibition measured after 72 hrs by MTT assay; assay type: functional, cell-based, U-87MG ATCC
HGC-27 = assay: Cytotoxicity against human HGC-27 cells assessed as cell growth inhibition measured after 72 hrs by MTT assay; assay type: functional, cell-based; settings: HGC-27, 72 h
[4] = tested on: Mycoplasmoides pneumoniae; assay: Antibacterial activity against Mycoplasma pneumoniae ATCC29342 assessed as inhibition of bacterial growth incubated for 18 hrs by two-fold serial dilution method; assay type: functional
[5] = tested on: Mycoplasmoides pneumoniae; assay: Antibacterial activity against Mycoplasma pneumoniae ATCC15531 assessed as inhibition of bacterial growth incubated for 18 hrs by two-fold serial dilution method; assay type: functional
[6] = tested on: Mycoplasmoides pneumoniae; assay: Antibacterial activity against drug resistant Mycoplasma pneumoniae assessed as inhibition of bacterial growth incubated for 18 hrs by two-fold serial dilution method; assay type: functional

SMILES | MIC (Staphylococcus aureus [1]) [µg/mL] | MIC (Enterococcus faecium) [µg/mL] | MIC (Staphylococcus aureus [2]) [µg/mL] | MIC [3] [µg/mL] | IC50 (MCF7) [µM] | IC50 (HepG2) [µM] | IC50 (HT-29) [µM] | IC50 (U-87 MG) [µM] | IC50 (HGC-27) [µM] | MIC [4] [µg/mL] | MIC [5] [µg/mL] | MIC [6] [µg/mL]
C=C[C@]1(C)C[C@@H](OC(=O)CNC(=S)NC(=O)c2ccc(F)cc2)[C@]2(C)[C@H](C)CC[C@]3(CCC(=O)[C@H]32)[C@@H](C)[C@@H]1O | 4 (≈ 7.16 µM) | 8 (≈ 14.3 µM) | 4 (≈ 7.16 µM) | > 64 | – | – | – | – | – | – | – | –
C=C[C@]1(C)C[C@@H](OC(=O)CNC(=O)Nc2cc(Cl)cc(Cl)c2)[C@]2(C)[C@H](C)CC[C@]3(CCC(=O)[C@H]32)[C@@H](C)[C@@H]1O | 0.5 (≈ 0.884 µM) | 32 (≈ 56.6 µM) | 0.5 (≈ 0.884 µM) | > 64 | – | – | – | – | – | – | – | –
C=C[C@]1(C)C[C@@H](OC(=O)CNC(=S)NC(=O)c2ccc(Br)cc2)[C@]2(C)[C@H](C)CC[C@]3(CCC(=O)[C@H]32)[C@@H](C)[C@@H]1O | 16 (≈ 25.8 µM) | 16 (≈ 25.8 µM) | 16 (≈ 25.8 µM) | > 64 | – | – | – | – | – | – | – | –
C=C[C@]1(C)C[C@@H](OC(=O)CNC(=O)Nc2ccc(Cl)cc2)[C@]2(C)[C@H](C)CC[C@]3(CCC(=O)[C@H]32)[C@@H](C)[C@@H]1O | 0.25 (≈ 0.471 µM) | 16 (≈ 30.1 µM) | 0.25 (≈ 0.471 µM) | > 64 | > 10 | > 10 | > 10 | > 10 | > 10 | – | – | –
C=C[C@]1(C)C[C@@H](OC(=O)CNC(=S)NCCCCCCCCCCCCCCCCCC)[C@]2(C)[C@H](C)CC[C@]3(CCC(=O)[C@H]32)[C@@H](C)[C@@H]1O | 2 (≈ 2.9 µM) | 32 (≈ 46.4 µM) | 4 (≈ 5.8 µM) | > 64 | – | – | – | – | – | – | – | –
C=C[C@]1(C)C[C@@H](OC(=O)CNC(=O)Nc2ccccc2)[C@]2(C)[C@H](C)CC[C@]3(CCC(=O)[C@H]32)[C@@H](C)[C@@H]1O | 0.5 (≈ 1.01 µM) | 32 (≈ 64.4 µM) | 0.5 (≈ 1.01 µM) | > 64 | – | – | – | – | – | – | – | –
C=C[C@]1(C)C[C@@H](OC(=O)CNC(=S)Nc2ccc(OC)cc2)[C@]2(C)[C@H](C)CC[C@]3(CCC(=O)[C@H]32)[C@@H](C)[C@@H]1O | 0.5 (≈ 0.921 µM) | 16 (≈ 29.5 µM) | 1 (≈ 1.84 µM) | > 64 | – | – | – | – | – | – | – | –
C=C[C@]1(C)C[C@@H](OC(=O)CNC(=S)NC2CCCCC2)[C@]2(C)[C@H](C)CC[C@]3(CCC(=O)[C@H]32)[C@@H](C)[C@@H]1O | 1 (≈ 1.93 µM) | 32 (≈ 61.7 µM) | 1 (≈ 1.93 µM) | > 64 | – | – | – | – | – | – | – | –
C=C[C@]1(C)C[C@@H](OC(=O)CNC(=O)NC(=O)c2cccc(F)c2)[C@]2(C)[C@H](C)CC[C@]3(CCC(=O)[C@H]32)[C@@H](C)[C@@H]1O | 0.25 (≈ 0.461 µM) | 16 (≈ 29.5 µM) | 0.5 (≈ 0.921 µM) | > 64 | > 10 | > 10 | > 10 | > 10 | > 10 | – | – | –
C=C[C@]1(C)C[C@@H](OC(=O)CNC(=O)NCCC)[C@]2(C)[C@H](C)CC[C@]3(CCC(=O)[C@H]32)[C@@H](C)[C@@H]1O | 2 (≈ 4.32 µM) | 32 (≈ 69.2 µM) | 2 (≈ 4.32 µM) | > 64 | – | – | – | – | – | – | – | –
C=C[C@]1(C)C[C@@H](OC(=O)CNC(=S)Nc2ccc(F)cc2)[C@]2(C)[C@H](C)CC[C@]3(CCC(=O)[C@H]32)[C@@H](C)[C@@H]1O | 0.25 (≈ 0.471 µM) | 16 (≈ 30.1 µM) | 1 (≈ 1.88 µM) | > 64 | – | – | – | – | – | – | – | –
C=C[C@]1(C)C[C@@H](OC(=O)CNC(=O)Nc2cccc(Cl)c2)[C@]2(C)[C@H](C)CC[C@]3(CCC(=O)[C@H]32)[C@@H](C)[C@@H]1O | 0.5 (≈ 0.941 µM) | 8 (≈ 15.1 µM) | 1 (≈ 1.88 µM) | > 64 | – | – | – | – | – | – | – | –
C=C[C@]1(C)C[C@@H](OC(=O)CNC(=S)Nc2ccccc2)[C@]2(C)[C@H](C)CC[C@]3(CCC(=O)[C@H]32)[C@@H](C)[C@@H]1O | 1 (≈ 1.95 µM) | 16 (≈ 31.2 µM) | 1 (≈ 1.95 µM) | > 64 | – | – | – | – | – | – | – | –
C=C[C@]1(C)C[C@@H](OC(=O)CNC(=O)Nc2ccccc2Cl)[C@]2(C)[C@H](C)CC[C@]3(CCC(=O)[C@H]32)[C@@H](C)[C@@H]1O | 0.5 (≈ 0.941 µM) | 8 (≈ 15.1 µM) | 0.5 (≈ 0.941 µM) | > 64 | – | – | – | – | – | – | – | –
C=C[C@]1(C)C[C@@H](OC(=O)CNC(=O)NC2CCCCC2)[C@]2(C)[C@H](C)CC[C@]3(CCC(=O)[C@H]32)[C@@H](C)[C@@H]1O | 2 (≈ 3.98 µM) | 8 (≈ 15.9 µM) | 2 (≈ 3.98 µM) | > 64 | – | – | – | – | – | – | – | –
C=C[C@]1(C)C[C@@H](OC(=O)CNC(=O)Nc2cccc3ccccc23)[C@]2(C)[C@H](C)CC[C@]3(CCC(=O)[C@H]32)[C@@H](C)[C@@H]1O | 2 (≈ 3.66 µM) | 16 (≈ 29.3 µM) | 2 (≈ 3.66 µM) | > 64 | – | – | – | – | – | – | – | –
C=C[C@]1(C)C[C@@H](OC(=O)CNC(=S)Nc2ccc3ccccc3c2)[C@]2(C)[C@H](C)CC[C@]3(CCC(=O)[C@H]32)[C@@H](C)[C@@H]1O | 4 (≈ 7.11 µM) | 32 (≈ 56.9 µM) | 16 (≈ 28.4 µM) | > 64 | – | – | – | – | – | – | – | –
C=C[C@]1(C)C[C@@H](OC(=O)CNC(=O)Nc2ccc(Br)cc2)[C@]2(C)[C@H](C)CC[C@]3(CCC(=O)[C@H]32)[C@@H](C)[C@@H]1O | – | 8 (≈ 13.9 µM) | – | > 64 | > 10 | > 10 | > 10 | > 10 | > 10 | 0.5 (≈ 0.869 µM) | 1 (≈ 1.74 µM) | –
C=C[C@]1(C)C[C@@H](OC(=O)CO)[C@]2(C)[C@H](C)CC[C@]3(CCC(=O)[C@H]32)[C@@H](C)[C@@H]1O [PLEUROMULIN] | 2 (≈ 5.28 µM) | 32 (≈ 84.5 µM) | 1 (≈ 2.64 µM) | 16 (≈ 42.3 µM) | – | – | – | – | – | 0.0625 (≈ 0.165 µM) | 0.125 (≈ 0.33 µM) | 0.25 (≈ 0.66 µM)
C=C[C@]1(C)C[C@@H](OC(=O)CNC(=O)Nc2ccccc2-c2ccccc2)[C@]2(C)[C@H](C)CC[C@]3(CCC(=O)[C@H]32)[C@@H](C)[C@@H]1O | 4 (≈ 6.98 µM) | 32 (≈ 55.9 µM) | 4 (≈ 6.98 µM) | > 64 | – | – | – | – | – | – | – | –
C=C[C@]1(C)C[C@@H](OC(=O)CNC(=O)Nc2cccc(C)c2)[C@]2(C)[C@H](C)CC[C@]3(CCC(=O)[C@H]32)[C@@H](C)[C@@H]1O | 0.5 (≈ 0.979 µM) | 16 (≈ 31.3 µM) | 0.125 (≈ 0.245 µM) | > 64 | – | – | – | – | – | – | – | –
C=C[C@]1(C)C[C@@H](OC(=O)CNC(=S)Nc2ccc(C(F)(F)F)cc2)[C@]2(C)[C@H](C)CC[C@]3(CCC(=O)[C@H]32)[C@@H](C)[C@@H]1O | 1 (≈ 1.72 µM) | 8 (≈ 13.8 µM) | 1 (≈ 1.72 µM) | > 64 | – | – | – | – | – | – | – | –
C=C[C@]1(C)C[C@@H](OC(=O)CNC(=S)NC(C)=O)[C@]2(C)[C@H](C)CC[C@]3(CCC(=O)[C@H]32)[C@@H](C)[C@@H]1O | 2 (≈ 4.18 µM) | 16 (≈ 33.4 µM) | 2 (≈ 4.18 µM) | > 64 | – | – | – | – | – | – | – | –
C=C[C@]1(C)C[C@@H](OC(=O)CNC(=O)NCC)[C@]2(C)[C@H](C)CC[C@]3(CCC(=O)[C@H]32)[C@@H](C)[C@@H]1O | 2 (≈ 4.46 µM) | 32 (≈ 71.3 µM) | 2 (≈ 4.46 µM) | > 64 | – | – | – | – | – | – | – | –
C=C[C@]1(C)C[C@@H](OC(=O)CNC(=S)NC(=O)c2ccccc2)[C@]2(C)[C@H](C)CC[C@]3(CCC(=O)[C@H]32)[C@@H](C)[C@@H]1O | > 64 | 32 (≈ 59.2 µM) | > 64 | > 64 | – | – | – | – | – | – | – | –
C=C[C@]1(C)C[C@@H](OC(=O)CNC(=S)Nc2ccccc2C)[C@]2(C)[C@H](C)CC[C@]3(CCC(=O)[C@H]32)[C@@H](C)[C@@H]1O | 2 (≈ 3.8 µM) | 16 (≈ 30.4 µM) | 4 (≈ 7.59 µM) | > 64 | – | – | – | – | – | – | – | –
C=C[C@]1(C)C[C@@H](OC(=O)CNC(=S)NC(=O)c2ccc(Cl)cc2)[C@]2(C)[C@H](C)CC[C@]3(CCC(=O)[C@H]32)[C@@H](C)[C@@H]1O | 16 (≈ 27.8 µM) | 8 (≈ 13.9 µM) | 16 (≈ 27.8 µM) | > 64 | – | – | – | – | – | – | – | –
